Data reported in ChEMBL document CHEMBL3400041, “Pyridinic analog of the natural product (-)-spectaline as potential adjuvant for the treatment of central nervous system disorders” (Bioorg Med Chem Lett, 2015).
The source made the active and inactive calls. The calls are words filed in the database; no cut-off is given here.

What was measured:
Mus musculus [1] = assay: Effect on CNS activity in mouse assessed as reduction in number of groomings at 10 mg/kg, po by spontaneous locomotor activity test; type: functional, organism-based; set-up: dose 10 mg/kg; conditions: Central nervous system
Mus musculus [2] = assay: Antidepressant-like activity in mouse assessed as decrease in immobility time at 5 to 10 mg/kg, po by forced swimming test; type: functional, organism-based
Mus musculus [3] = assay: Antischizophrenic activity in mouse assessed as inhibition of apomorphine-induced climbing behavior at 5 to 10 mg/kg, po; type: functional, organism-based
Mus musculus [4] = assay: Toxicity in mouse assessed as rearing behavior at 10 mg/kg, po by spontaneous locomotor activity test; type: organism-based; set-up: dose 10 mg/kg, route oral; conditions: in vivo
Mus musculus [5] = assay: Effect on CNS activity in mouse assessed as reduction in exploratory behaviour at 10 mg/kg, po by spontaneous locomotor activity test; type: functional, organism-based; set-up: dose 10 mg/kg; conditions: Central nervous system
Mus musculus [6] = assay: Antidepressant-like activity in mouse assessed as decrease in immobility time at 10 mg/kg, po by forced swimming test; type: functional, organism-based; set-up: dose 10 mg/kg
Mus musculus [7] = assay: Antischizophrenic activity in mouse assessed as inhibition of apomorphine-induced climbing behavior at 5 mg/kg, po; type: functional, organism-based; set-up: dose 5 mg/kg
Mus musculus [8] = assay: Antischizophrenic activity in mouse assessed as inhibition of apomorphine-induced climbing behavior at 10 mg/kg, po; type: functional, organism-based; set-up: dose 10 mg/kg

Row | Structure (SMILES) | Activity (Mus musculus [1]) | Activity (Mus musculus [2]) | inhibition (Mus musculus [3]) | Activity (Mus musculus [4]) | Activity (Mus musculus [5]) | Activity (Mus musculus [6]) | inhibition (Mus musculus [7]) | inhibition (Mus musculus [8])
1 | CCOC(=O)CSc1ccc([N+](=O)[O-])c(SCC(=O)OCC)n1 | Active | inactive | inactive | Non-toxic | Active | – | – | –
2 | CN(C)CCCN1c2ccccc2CCc2ccccc21 | – | – | – | – | – | Active | – | –
3 | CCOC(=O)CSc1nc(Cl)ccc1[N+](=O)[O-] | Active | inactive | inactive | Non-toxic | Active | – | – | –
4 | CN1CCN(C2=Nc3cc(Cl)ccc3Nc3ccccc32)CC1 | – | – | – | – | – | – | Active | –
5 | CCOC(=O)CSc1ncccc1[N+](=O)[O-] | Active | Active | – | Non-toxic | Active | – | – | Active
